Measurements reported in patent US9828393B2, “Silylalkyloxyaryl compounds and methods for treating cancer” (THE REGENTS OF THE UNIVERSITY OF COLORADO, a body corporate, priority 2013, dated 2017).
Where two headings read alike, the source gives them in different places.

Tests used:
SK-MEL-28 = assay: NCI-60 cell line screen (SRB), SK-MEL-28; type: cell-based, human
Protocol: (§1) Drug sensitivity data are provided as GI50s (concentrations required to inhibit growth by 50%). The first row of the text file identifies cell lines, separated by tabs. Subsequent rows contain compound number, compound name, and GI50 for each cell line, each separated by a tab. […] For a typical screening experiment, cells are inoculated into 96 well microtiter plates in 100 μL at plating densities ranging from 5,000 to 40,000 cells/well depending on the doubling time of individual cell lines. After cell inoculation, the microtiter plates are incubated at 37° C., 5% CO2, 95% air and 100% relative humidity for 24 h prior to addition of experimental drugs. After 24 h, two plates of each cell line are fixed in situ with TCA, to represent a measurement of the cell population for each cell line at the time of drug addition (Tz). Experimental drugs are solubilized in dimethyl sulfoxide at 400-fold the desired final maximum test concentration and stored frozen prior to use. At the time of drug addition, an aliquot of frozen concentrate is thawed and diluted to twice the desired final maximum test concentration with complete medium containing 50 μg/ml gentamicin. Additional four, 10-fold or one-half log serial dilutions are made to provide a total of five drug concentrations plus control. Aliquots of 100 μl of these different drug dilutions are added to the appropriate microtiter wells already containing 100 μl of medium, resulting in the required final drug concentrations. Following drug addition, the plates are incubated for an additional 48 h at 37° C., 5% CO2, 95% air, and 100% relative humidity. For adherent cells, the assay is terminated by the addition of cold TCA. Cells are fixed in situ by the gentle addition of 50 μl of cold 50% (w/v) TCA (final concentration, 10% TCA) and incubated for 60 minutes at 4° C. The supernatant is discarded, and the plates are washed five times with tap water and air dried. Sulforhodamine B (SRB) solution (100 μl) at 0.4% (w/v) in 1% acetic acid is added to each well, and plates are incubated for 10 minutes at room temperature. After staining, unbound dye is removed by washing five times with 1% acetic acid and the plates are air dried. Bound stain is subsequently solubilized with 10 mM trizma base, and the absorbance is read on an automated plate reader at a wavelength of 515 nm. For suspension cells, the methodology is the same except that the assay is terminated by fixing settled cells at the bottom of the wells by gently adding 50 μl of 80% TCA (final concentration, 16% TCA). Using the seven absorbance measurements [time zero, (Tz), control growth, (C), and test growth in the presence of drug at the five concentration levels (Ti)], the percentage growth is calculated at each of the drug concentrations levels. […]

COLO 205 = assay: NCI-60 cell line screen (SRB), COLO 205; type: cell-based, human
Protocol: as §1

ACHN = assay: NCI-60 cell line screen (SRB), ACHN; type: cell-based, human
Protocol: as §1

UACC-62 = assay: NCI-60 cell line screen (SRB), UACC-62; type: cell-based, human
Protocol: as §1

SNB-19 = assay: NCI-60 cell line screen (SRB), SNB-19; type: cell-based, human
Protocol: as §1

M14 = assay: NCI-60 cell line screen (SRB), M14; type: cell-based, human
Protocol: as §1

KM12 = assay: NCI-60 cell line screen (SRB), KM12; type: cell-based, human
Protocol: as §1

A-498 = assay: NCI-60 cell line screen (SRB), A-498; type: cell-based, human
Protocol: as §1

SNB-75 = assay: NCI-60 cell line screen (SRB), SNB-75; type: cell-based; details: Homo sapiens
Protocol: as §1, with “temperature.” for “temperature. After staining, unbound dye is removed by washing five times with 1% acetic acid and the plates are air dried. Bound stain is subsequently solubilized with 10 mM trizma base, and the absorbance is read on an automated plate reader at a wavelength of 515 nm. For suspension cells, the methodology is the same except that the assay is terminated by fixing settled cells at the bottom of the wells by gently adding 50 μl of 80% TCA (final concentration, 16% TCA). Using the seven absorbance measurements [time zero, (Tz), control growth, (C), and test growth in the presence of drug at the five concentration levels (Ti)], the percentage growth is calculated at each of the drug concentrations levels.”

Melanoma cell lines = assay: NCI-60 cell line screen, Melanoma panel average; type: cell-based, human; details: read-out: GI50 Average
Protocol: as §1

HS 578T = assay: NCI-60 cell line screen (SRB), HS 578T; type: cell-based, human
Protocol: as §1

MDA-MB-468 = assay: NCI-60 cell line screen (SRB), MDA-MB-468; type: cell-based, human
Protocol: as §1

SK-OV-3 = assay: NCI-60 cell line screen (SRB), SK-OV-3; type: cell-based, human
Protocol: as §1

NCI-H322M = assay: NCI-60 cell line screen (SRB), NCI-H322M; type: cell-based, human
Protocol: as §1

OVCAR-5 = assay: NCI-60 cell line screen (SRB), OVCAR-5; type: cell-based, human
Protocol: as §1

MCF-7 = assay: NCI-60 cell line screen (SRB), MCF-7; type: cell-based, human
Protocol: as §1

Breast Cancer cell lines = assay: NCI-60 cell line screen, Breast Cancer panel average; type: cell-based, human; details: read-out: GI50 Average
Protocol: as §1

NCI/ADR-RES = assay: NCI-60 cell line screen (SRB), NCI/ADR-RES; type: cell-based, human
Protocol: as §1

DU145 = assay: NCI-60 cell line screen (SRB), DU145; type: cell-based, human
Protocol: as §1

BT-549 = assay: NCI-60 cell line screen (SRB), BT-549; type: cell-based, human
Protocol: as §1

T-47D = assay: NCI-60 cell line screen (SRB), T-47D; type: cell-based, human
Protocol: as §1

SK-MEL-5 = assay: NCI-60 cell line screen (SRB), SK-MEL-5; type: cell-based, human
Protocol: as §1

UO-31 = assay: NCI-60 cell line screen (SRB), UO-31; type: cell-based, human
Protocol: as §1

HCC-2998 = assay: NCI-60 cell line screen (SRB), HCC-2998; type: cell-based, human
Protocol: as §1

CC1(C)CC(NC(=O)[C@H](Cc2ccc(OCc3c(Cl)cccc3Cl)cc2)NC(=O)c2ccc(OCCC[Si](C)(C)C)cc2)CC(C)(C)N1 [GH1501, N^α-{4-[3-(trimethylsilyl)propoxy]-benzoyl}-N-(2,2,6,6-tetramethylpiperidin-4-yl)-[O-(2,6-dichlorobenzyl)-L-tyrosinamide]]
GI50 (SK-MEL-28; Homo sapiens, SK-MEL-28, 48 h): 1500 nM
GI50 (COLO 205; Homo sapiens, COLO 205, 48 h): 216 nM
GI50 (ACHN; Homo sapiens, 48 h): 1320 nM
GI50 (UACC-62; Homo sapiens, UACC-62, 48 h): 1490 nM
GI50 (SNB-19; Homo sapiens, SNB-19, 48 h): 1720 nM
GI50 (M14; Homo sapiens, M14, 48 h): 341 nM
GI50 (KM12; Homo sapiens, KM12, 48 h): 363 nM
GI50 (A-498; Homo sapiens, A498, 48 h): 1750 nM
GI50 (SNB-75; SNB-75, 48 h): 1340 nM
GI50 (Melanoma cell lines; Homo sapiens): 1180 nM
GI50 (HS 578T; Homo sapiens, Hs-578T, 48 h): 1920 nM
GI50 (MDA-MB-468; Homo sapiens, MDA-MB-468, 48 h): 1700 nM
GI50 (SK-OV-3; Homo sapiens, SK-OV-3, 48 h): 2080 nM
GI50 (NCI-H322M; Homo sapiens, 48 h): 1740 nM
GI50 (OVCAR-5; Homo sapiens, OVCAR-5, 48 h): 1680 nM
GI50 (MCF-7; Homo sapiens, MCF7, 48 h): 335 nM
GI50 (Breast Cancer cell lines; Homo sapiens): 1460 nM
GI50 (NCI/ADR-RES; Homo sapiens, 48 h): 1480 nM
GI50 (DU145; Homo sapiens, DU-145, 48 h): 347 nM
GI50 (BT-549; Homo sapiens, BT-549, 48 h): 2010 nM
GI50 (T-47D; Homo sapiens, T47D, 48 h): 1900 nM
GI50 (SK-MEL-5; Homo sapiens, SK-MEL-5, 48 h): 1720 nM
GI50 (UO-31; Homo sapiens, UO-31, 48 h): 1520 nM
GI50 (HCC-2998; Homo sapiens, HCC 2998, 48 h): 1050 nM

CCCC[Si](C)(C)COc1ccc(C(=O)N[C@@H](Cc2ccc(OCc3c(Cl)cccc3Cl)cc2)C(=O)NC2CC(C)(C)NC(C)(C)C2)cc1 [GH1503, N^α-{4-[(butyldimethylsilyl)methoxy]-benzoyl}-N-(2,2,6,6-tetramethylpiperidin-4-yl)-[O-(2,6-dichlorobenzyl)-L-tyrosinamide]]
GI50 (SK-MEL-28; Homo sapiens, Melanoma, SK-MEL-28, 48 h drug incubation, read-out: GI50): 1580 nM
GI50 (COLO 205; Homo sapiens, Colon Cancer, COLO 205, 48 h drug incubation, read-out: GI50): 342 nM
GI50 (ACHN; Homo sapiens, Renal Cancer, 48 h drug incubation, read-out: GI50): 478 nM
GI50 (UACC-62; Homo sapiens, Melanoma, UACC-62, 48 h drug incubation, read-out: GI50): 1500 nM
GI50 (SNB-19; Homo sapiens, CNS Cancer, SNB-19, 48 h drug incubation, read-out: GI50): 1600 nM
GI50 (M14; Homo sapiens, Melanoma, M14, 48 h drug incubation, read-out: GI50): 334 nM
GI50 (KM12; Homo sapiens, Colon Cancer, KM12, 48 h drug incubation, read-out: GI50): 382 nM
GI50 (A-498; Homo sapiens, A498, Renal Cancer, A-498, 48 h drug incubation, read-out: GI50): 1950 nM
GI50 (SNB-75; CNS Cancer, SNB-75, 48 h drug incubation, read-out: GI50): 1350 nM
GI50 (Melanoma cell lines; Homo sapiens, average over Melanoma panel): 1130 nM
GI50 (HS 578T; Homo sapiens, Breast Cancer, HS 578T, 48 h drug incubation, read-out: GI50): 2010 nM
GI50 (MDA-MB-468; Homo sapiens, Breast Cancer, MDA-MB-468, 48 h drug incubation, read-out: GI50): 1540 nM
GI50 (SK-OV-3; Homo sapiens, Ovarian Cancer, SK-OV-3, 48 h drug incubation, read-out: GI50): 2030 nM
GI50 (NCI-H322M; Homo sapiens, Non-Small Cell Lung Cancer, 48 h drug incubation, read-out: GI50): 1570 nM
GI50 (OVCAR-5; Homo sapiens, Ovarian Cancer, OVCAR-5, 48 h drug incubation, read-out: GI50): 1620 nM
GI50 (MCF-7; Homo sapiens, MCF7, Breast Cancer, MCF-7, 48 h drug incubation, read-out: GI50): 356 nM
GI50 (Breast Cancer cell lines; Homo sapiens, average over Breast Cancer panel): 1390 nM
GI50 (NCI/ADR-RES; Homo sapiens, Ovarian Cancer, 48 h drug incubation, read-out: GI50): 1250 nM
GI50 (DU145; Homo sapiens, DU-145, Prostate Cancer, DU145, 48 h drug incubation, read-out: GI50): 274 nM
GI50 (BT-549; Homo sapiens, Breast Cancer, BT-549, 48 h drug incubation, read-out: GI50): 2110 nM
GI50 (T-47D; Homo sapiens, T47D, Breast Cancer, T-47D, 48 h drug incubation, read-out: GI50): 1840 nM
GI50 (SK-MEL-5; Homo sapiens, Melanoma, SK-MEL-5, 48 h drug incubation, read-out: GI50): 1680 nM
GI50 (UO-31; Homo sapiens, Renal Cancer, UO-31, 48 h drug incubation, read-out: GI50): 1500 nM
GI50 (HCC-2998; Homo sapiens, Colon Cancer, HCC-2998, 48 h drug incubation, read-out: GI50): 1070 nM

CCOP(=O)(OCC)C(NC(=O)[C@H](Cc1ccc(-c2ccccc2)cc1)NC(=O)c1ccc(OCCC[Si](C)(C)C)cc1)P(=O)(OCC)OCC [GH1505, N^α-{4-[3-(trimethylsilyl)propoxy]-benzoyl}-N-[bis(dietoxyphosphoryl)methyl]-(4-phenyl-L-phenylalaninamide)]
GI50 (SK-MEL-28; Melanoma, SK-MEL-28, 48 h drug incubation, read-out: GI50): 1760 nM
GI50 (COLO 205; Colon Cancer, COLO 205, 48 h drug incubation, read-out: GI50): 1840 nM
GI50 (ACHN; Renal Cancer, 48 h drug incubation, read-out: GI50): 2270 nM
GI50 (UACC-62; Melanoma, UACC-62, 48 h drug incubation, read-out: GI50): 1620 nM
GI50 (SNB-19; CNS Cancer, SNB-19, 48 h drug incubation, read-out: GI50): 2060 nM
GI50 (M14; Melanoma, M14, 48 h drug incubation, read-out: GI50): 2100 nM
GI50 (KM12; Colon Cancer, KM12, 48 h drug incubation, read-out: GI50): 2610 nM
GI50 (A-498; Renal Cancer, A-498, 48 h drug incubation, read-out: GI50): 3640 nM
GI50 (Melanoma cell lines; average over Melanoma panel): 1920 nM
GI50 (HS 578T; Breast Cancer, HS 578T, 48 h drug incubation, read-out: GI50): 2610 nM
GI50 (MDA-MB-468; Breast Cancer, MDA-MB-468, 48 h drug incubation, read-out: GI50): 1720 nM
GI50 (SK-OV-3; Ovarian Cancer, SK-OV-3, 48 h drug incubation, read-out: GI50): 2590 nM
GI50 (NCI-H322M; Non-Small Cell Lung Cancer, 48 h drug incubation, read-out: GI50): 5110 nM
GI50 (OVCAR-5; Ovarian Cancer, OVCAR-5, 48 h drug incubation, read-out: GI50): 1710 nM
GI50 (MCF-7; Breast Cancer, MCF-7, 48 h drug incubation, read-out: GI50): 1880 nM
GI50 (Breast Cancer cell lines; average over Breast Cancer panel): 2170 nM
GI50 (NCI/ADR-RES; Ovarian Cancer, 48 h drug incubation, read-out: GI50): 3310 nM
GI50 (DU145; Prostate Cancer, DU145, 48 h drug incubation, read-out: GI50): 1930 nM
GI50 (BT-549; Breast Cancer, BT-549, 48 h drug incubation, read-out: GI50): 2090 nM
GI50 (T-47D; Breast Cancer, T-47D, 48 h drug incubation, read-out: GI50): 3100 nM
GI50 (SK-MEL-5; Melanoma, SK-MEL-5, 48 h drug incubation, read-out: GI50): 1580 nM
GI50 (UO-31; Renal Cancer, UO-31, 48 h drug incubation, read-out: GI50): 2770 nM
GI50 (HCC-2998; Colon Cancer, HCC-2998, 48 h drug incubation, read-out: GI50): 2020 nM
